Here are results for 21 molecules from US12037345B2, “Heterobicyclic compounds for inhibiting the activity of SHP2” (TAIHO PHARMACEUTICAL CO., LTD., priority 2018, dated 2024).

Molecules are shown by their SMILES. Counter-ions that a name gives are not always drawn.

Chain of SHP2 (Q06124 whole entry): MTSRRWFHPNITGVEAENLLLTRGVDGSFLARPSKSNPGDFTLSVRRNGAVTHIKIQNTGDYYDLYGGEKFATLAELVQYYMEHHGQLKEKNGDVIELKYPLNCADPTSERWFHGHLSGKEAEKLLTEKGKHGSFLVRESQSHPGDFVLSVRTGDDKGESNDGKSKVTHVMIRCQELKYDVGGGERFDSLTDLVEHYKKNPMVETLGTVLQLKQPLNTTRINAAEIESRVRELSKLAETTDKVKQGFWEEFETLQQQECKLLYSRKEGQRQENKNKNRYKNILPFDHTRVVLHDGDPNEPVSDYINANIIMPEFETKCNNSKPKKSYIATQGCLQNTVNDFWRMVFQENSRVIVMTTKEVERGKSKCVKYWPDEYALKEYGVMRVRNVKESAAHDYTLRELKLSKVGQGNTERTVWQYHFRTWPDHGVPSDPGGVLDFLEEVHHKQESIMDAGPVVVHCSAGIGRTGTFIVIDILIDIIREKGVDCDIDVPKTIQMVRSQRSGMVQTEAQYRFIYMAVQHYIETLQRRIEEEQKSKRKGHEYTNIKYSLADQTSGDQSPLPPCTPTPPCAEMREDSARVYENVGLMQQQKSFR

One assay has as its target SHP2 (Homo sapiens (Human), UniProt Q06124). As to the kind of experiment: SHP2 Biochemical Assay (DiFMUP conversion, pIRS1-activated). Particulars: Table 19; head prints unit as "-M". As for the experimental part: SHP2 activity was monitored by measuring the conversion of the surrogate substrate 6,8-difluoromethylumbelliferyl phosphate (DiFMUP) to the fluorescent product, 6,8-difluoromethylumbelliferone (DiFMU).
SHP2 was pre-incubated with test compounds and the activating peptide pIRS1 (H2N-LN(pY)IDLDLV-(PEG)8-LST(pY)ASINFQK-amide) for 30 min, prior to addition of the 6,8-difluoromethylumbelliferyl phosphate (DiFMUP), (Thermo Fisher D6567). Final assay concentrations were 10 pM SHP2, […] pIRS1 peptide, 50 μM DiFMUP, 25 mM Bis-Tris propane, pH 7.0, 150 mM NaCl, 0.05% (v/v) Tween-20, 0.5 mM TCEP and 5% (v/v) DMSO. Rates of reaction were then measured over 30 min by monitoring fluorescence on a BMG Pherastar reader at excitation 360 nm/emission 450 nm. IC50 values were calculated in singlicate from the normalized dose-response plots using four parameter logistic curve fit. The Experiment for each compound was carried out in one time or multiple times, and the IC50 values were shown as a single value (for a compound measured in a single experiment) or an average value (for a compound measured in multiple experiments).
Turning to `Cn1cc2c(Cl)c(-c3n[nH]c4nc(N5CC6COCC(C5)N6)n(C)c(=O)c34)ccc2n1` [Example 145, 3-(4-chloro-2-methyl-2H-indazol-5-yl)-5-methyl-6-{3-oxa-7,9-diazabicyclo[3.3.1]nonan-7-yl}-1H,4H,5H-pyrazolo[3,4-d]pyrimidin-4-one], 150 nM corresponded to half-maximal inhibition (IC50).
Regarding `C[C@@H]1CN(c2nc3[nH]cc(-c4ccc5nn(C)cc5c4Cl)c3c(=O)n2C)CCN1` [Example 18, (R)-5-(4-chloro-2-methyl-2H-indazol-5-yl)-3-methyl-2-(3-methylpiperazin-1-yl)-3,7-dihydro-4H-pyrrolo[2,3-d]pyrimidin-4-one], the IC50 (usually the concentration that gives 50% inhibition) turned out to be 230 nM.
As for `Cn1cc2c(Cl)c(-c3c[nH]c4nc(N5CCN[C@H](CO)C5)n(C)c(=O)c34)ccc2n1` [Example 19, (S)-5-(4-chloro-2-methyl-2H-indazol-5-yl)-2-(3-(hydroxymethyl)piperazin-1-yl)-3-methyl-3,7-dihydro-4H-pyrrolo[2,3-d]pyrimidin-4-one], it took 350 nM to reach half-maximal inhibition (IC50).
Consider `Cn1cc2c(Cl)c(-c3c[nH]c4nc(N5CCN[C@H](CCO)C5)n(C)c(=O)c34)ccc2n1` [Example 20, (R)-5-(4-chloro-2-methyl-2H-indazol-5-yl)-2-(3-(2-hydroxyethyl)piperazin-1-yl)-3-methyl-3,7-dihydro-4H-pyrrolo[2,3-d]pyrimidin-4-one], for which the half-inhibitory concentration (IC50) turned out to be 760 nM.
`CCn1cc2c(Cl)c(-c3c[nH]c4nc(N5C[C@H]6CC[C@@H]5[C@@H]6N)n(C)c(=O)c34)ccc2n1` (stereo in doubt) [Example 155, rel-2-((1R,4R,7R)-7-amino-2-azabicyclo[2.2.1]heptan-2-yl)-5-(4-chloro-2-ethyl-2H-indazol-5-yl)-3-methyl-3,7-dihydro-4H-pyrrolo[2,3-d]pyrimidin-4-one] gave an IC50 of 4 nM.
Take `Cn1cc2c(Cl)c(-c3c[nH]c4nc(N5CCC6(CCN6)CC5)n(C)c(=O)c34)ccc2n1` [Example 42, 5-(4-chloro-2-methyl-2H-indazol-5-yl)-3-methyl-2-(1,7-diazaspiro[3.5]nonan-7-yl)-3,7-dihydro-4H-pyrrolo[2,3-d]pyrimidin-4-one]: the IC50 stood at 78 nM.
As to `Cn1cc2c(Cl)c(-c3n[nH]c4nc(N5[C@@H]6CC[C@H]5[C@H](F)[C@@H](N)C6)n(C)c(=O)c34)ccc2n1` [Example 149, 6-[(1S,2R,3S,5R)-3-Amino-2-fluoro-8-azabicyclo[3.2.1]octan-8-yl]-3-(4-chloro-2-methyl-2H-indazol-5-yl)-5-methyl-1H,4H,5H-pyrazolo[3,4-d]pyrimidin-4-one], 290 nM corresponded to half-maximal inhibition (IC50).

Still in this assay, the particulars now being: Table 20.
Molecule `CCn1cc2c(Cl)c(-c3c[nH]c4nc(N5CCC6(CNC6)C5)n(C)c(=O)c34)ccc2n1` (racemic) [Example 196, rac-5-(4-chloro-2-ethyl-2H-indazol-5-yl)-2-{2,6-diazaspiro[3.4]octan-6-yl}-3-methyl-3H,4H,7H-pyrrolo[2,3-d]pyrimidin-4-one] came in with an IC50 of 32 nM.
As for `CCn1cc2cc(-c3c[nH]c4nc(N5CCC6(CC5)COC[C@H]6N)n(C)c(=O)c34)cc(F)c2n1` [Example 186, 2-[(4S)-4-amino-2-oxa-8-azaspiro[4.5]decan-8-yl]-5-(2-ethyl-7-fluoro-2H-indazol-5-yl)-3-methyl-3H,4H,7H-pyrrolo[2,3-d]pyrimidin-4-one hydrochloride], it took 36 nM to reach half-maximal inhibition (IC50).
On the same count and under the same terms, for `Cn1nc2c(Cl)cc(-c3c[nH]c4nc(N5[C@H]6CC[C@@H]5[C@@H](N)C6)n(C)c(=O)c34)c(Cl)c2c1Cl` [Example 168, 2-((1R,2S,4S)-2-amino-7-azabicyclo[2.2.1]heptan-7-yl)-3-methyl-5-(3,4,7-trichloro-2-methyl-2H-indazol-5-yl)-3,7-dihydro-4H-pyrrolo[2,3-d]pyrimidin-4-one] the value was 7 nM; for `Cn1nc2ccc(-c3c[nH]c4nc(N5[C@H]6CC[C@@H]5[C@H](N)C6)n(C)c(=O)c34)cc2c1Cl` [Example 167, 2-((1R,2R,4S)-2-amino-7-azabicyclo[2.2.1]heptan-7-yl)-5-(3-chloro-2-methyl-2H-indazol-5-yl)-3-methyl-3,7-dihydro-4H-pyrrolo[2,3-d]pyrimidin-4-one], 13 nM; for `Cn1nc2ccc(-c3c[nH]c4nc(N5[C@H]6CC[C@@H]5[C@@H](N)C6)n(C)c(=O)c34)c(Cl)c2c1Cl` [Example 166, 2-((1R,2S,4S)-2-amino-7-azabicyclo[2.2.1]heptan-7-yl)-5-(3,4-dichloro-2-methyl-2H-indazol-5-yl)-3-methyl-3,7-dihydro-4H-pyrrolo[2,3-d]pyrimidin-4-one], 53 nM.
As to `Cn1cc2c(Cl)c(-c3c[nH]c4nc(N5[C@@H]6CC[C@H]5C[C@](N)(C(F)F)C6)n(C)c(=O)c34)ccc2n1` [Example 185, 2-[(endo)-3-amino-3-(difluoromethyl)-8-azabicyclo[3.2.1]octan-8-yl]-5-(4-chloro-2-methyl-2H-indazol-5-yl)-3-methyl-3H,4H,7H-pyrrolo[2,3-d]pyrimidin-4-one hydrochloride], the IC50 was determined as 180 nM.
Turning to `CCn1cc2ccc(-c3c[nH]c4nc(N5CCC6(CC5)COC[C@H]6N)n(C)c(=O)c34)cc2n1` [Example 183, 2-[(4S)-4-amino-2-oxa-8-azaspiro[4.5]decan-8-yl]-5-(2-ethyl-2H-indazol-6-yl)-3-methyl-3H,4H,7H-pyrrolo[2,3-d]pyrimidin-4-one hydrochloride], the IC50 stood at 140 nM.
In turn, `CCn1cc2c(Cl)c(-c3c[nH]c4nc(N5CC6CNCC5C6)n(C)c(=O)c34)ccc2n1` (single isomer, unassigned) [Example 193, 5-(4-chloro-2-ethyl-2H-indazol-5-yl)-2-{3,6-diazabicyclo[3.2.1]octan-6-yl}-3-methyl-3H,4H,7H-pyrrolo[2,3-d]pyrimidin-4-one hydrochloride] registered an IC50 of 260 nM.

The subject of the next assay is pERK (phospho-p44/42 ERK) in HCC827 cells. As to the kind of experiment: Cellular pERK Inhibition Assay, Method A (In-Cell Western). The class given is cell-based. Particulars: Homo sapiens, Table 19, head prints unit as "-M", read-out: pERK (IC50) Method A. The procedure:
Cellular pERK Inhibition Assay
pERK levels were determined using the In-Cell Western assay. HCC827 cells (ATCC, Manassas, USA) were seeded into 384-well plates at a density of 1×10^4 cells/well in RPMI1640 medium supplemented with 10% FBS and incubated 24h. Compounds were diluted first in DMSO and then into serum-free medium, before being added to cells in quadruplicate to give a final concentration of 0.2% DMSO. Plates were incubated at 37° C. for the indicated time in a humidified atmosphere of 5% CO2 in air.
Following compound treatment, cells were fixed with formalin neutral buffer solution for 20 minutes at room temperature. Plates were washed three times with 0.1% Triton-X in PBS and cells were blocked for 1 hour with Odyssey blocking buffer (LI-COR, #927-40000). After shaking out blocking buffer, cells were incubated with phospho-p44/42 ERK antibody (Cell Signalling Technology, #4370, 1:200) diluted in Odyssey blocking buffer at 4° C. overnight. Plates were washed again and cells were incubated for 1 hour with Goat anti-Rabbit […] (LI-COR, #926-32211, 1:800) diluted in Odyssey blocking buffer. After washing and removing wash solution completely using a centrifuge machine, cells were scanned on the Odyssey (LI-COR), following the manufacturer's instructions. The average signal from blank wells (no cells added) was subtracted from the signals from each sample well. Levels of pERK were then expressed as percent of control, using DMSO treated samples as control. The relative IC50 values were calculated in quadruplicate from the normalized dose-response plots using four parameter logistic curve fit. The Experiment for each compound was carried out in one time or multiple times, and the IC50 values were shown as a single value (for a compound measured in a single experiment) or an average value (for a compound measured in multiple experiments).
Consider `Cn1nc2ccc(-c3c[nH]c4nc(N5[C@H]6CC[C@@H]5[C@H](N)C6)n(C)c(=O)c34)c(Cl)c2c1Cl` [Example 93, 2-((1R,2R,4S)-2-amino-7-azabicyclo[2.2.1]heptan-7-yl)-5-(3,4-dichloro-2-methyl-2H-indazol-5-yl)-3-methyl-3,7-dihydro-4H-pyrrolo[2,3-d]pyrimidin-4-one], for which the concentration for half-maximal inhibition (IC50) is 0.021 µM.
On the same count and under the same terms, then `CCn1cc2c(Cl)c(-c3c[nH]c4nc(N5C[C@@H]6CC[C@H]5[C@H]6N)n(C)c(=O)c34)ccc2n1` (stereo in doubt) [Example 133, rac-2-((1S,4S,7S)-7-amino-2-azabicyclo[2.2.1]heptan-2-yl)-5-(4-chloro-2-ethyl-2H-indazol-5-yl)-3-methyl-3,7-dihydro-4H-pyrrolo[2,3-d]pyrimidin-4-one], with 0.046 µM; and `Cn1nc2ccc(-c3c[nH]c4nc(N5[C@H]6CC[C@@H]5[C@H](N)C6)n(C)c(=O)c34)c(F)c2c1Cl` [Example 96, 2-((1R,2R,4S)-2-amino-7-azabicyclo[2.2.1]heptan-7-yl)-5-(3-chloro-4-fluoro-2-methyl-2H-indazol-5-yl)-3-methyl-3,7-dihydro-4H-pyrrolo[2,3-d]pyrimidin-4-one], with 0.03 µM; and `Cn1c(N2[C@H]3CC[C@@H]2[C@H](N)C3)nc2[nH]cc(-c3ccc4ncsc4c3Cl)c2c1=O` [Example 101, 2-((1R,2R,4S)-2-amino-7-azabicyclo[2.2.1]heptan-7-yl)-5-(7-chlorobenzo[d]thiazol-6-yl)-3-methyl-3,7-dihydro-4H-pyrrolo[2,3-d]pyrimidin-4-one], with 0.046 µM.
On to `CCn1cc2c(Cl)c(-c3c[nH]c4nc(N5[C@H]6CC[C@@H]5[C@H](N)C6)n(C)c(=O)c34)ccc2n1` [Example 92, 2-((1R,2R,4S)-2-amino-7-azabicyclo[2.2.1]heptan-7-yl)-5-(4-chloro-2-ethyl-2H-indazol-5-yl)-3-methyl-3,7-dihydro-4H-pyrrolo[2,3-d]pyrimidin-4-one], for which the IC50 was 0.032 µM.

Still in this assay, the particulars now being: Homo sapiens, Table 20, read-out: pERK (IC50, μM) Method A.
On to `Cn1nc2ccc(-c3c[nH]c4nc(N5C[C@H]6CC[C@@H]5[C@@H]6N)n(C)c(=O)c34)c(Cl)c2c1Cl` [Example 172, 2-((1R,4R,7R)-7-amino-2-azabicyclo[2.2.1]heptan-2-yl)-5-(3,4-dichloro-2-methyl-2H-indazol-5-yl)-3-methyl-3,7-dihydro-4H-pyrrolo[2,3-d]pyrimidin-4-one], for which the IC50 was determined as 0.016 µM.
